Five compounds from US4012385A, “Antibacterial quinoxaline 1,4-dioxides” (Pfizer Inc., priority 1975, dated 1977) can be followed below.

One assay concerns Streptococcus pyogenes. Description: in vitro antibacterial activity (MIC), two-fold serial dilution in Brain-Heart Infusion broth. Conditions: read-out: MIC Strep pyogenes.
Another assay deals with Escherichia coli. The assay is described as above. Conditions: read-out: MIC Esch coli.
The test system of assay [1] is Salmonella Choleraesuis. Described as above. Particulars: Salmonella enterica, read-out: MIC Sal. Choleraesuis.
Method: (§1) The broth is inoculated with bacteria, and with the quinoxaline 1,4-dioxide or 1,3 -dihydrofuro[3,4-b]quinoxaline 4,9-dioxide, and then it is incubated overnight at 37 ° C., under anaerobic conditions. On the next day, the test is read visually. The minimum inhibitory concentration (MIC) of test compound is the lowest concentration which prevents turbidity, i.e. which prevents growth of the microorganism.
In assay [2] the test system is Salmonella Choleraesuis. Conditions: mice, 25 mg./kg., multiple dosing, percentage of animals which survive.
Method: The test compound is administered using a multiple dosing regimen at a dosage of 25 mg./kg., and using either the oral (PO) or the subcutaneous (SC) route. The inoculum of bacteria varies from one to about ten times the amount needed to kill 100% of the mice, under conditions of the test. At the end of the test, the activity of a compound is assessed by counting the number of survivors among the treated animals and expressing the activity of a compound as the percentage of animals which survive.

Broadly, the MIC is the lowest concentration that inhibits growth of the organism.

SMILES strings stand for the structures. Values after ≈ are worked out from the molar mass of the structure shown.

Method for Escherichia coli: as §1
Method for Streptococcus pyogenes: as §1

With `O=C(c1ccccc1)c1c(CO)[n+]([O-])c2ccccc2[n+]1[O-]` [2-Benzoyl-3-hydroxymethylquinoxaline 1,4-Dioxide], the results for the MIC in the assay with Streptococcus pyogenes, in the assay on Escherichia coli and in the assay with Salmonella Choleraesuis [1] were 0.78 µg/mL (≈ 2.63 µM), 1.56 µg/mL (≈ 5.27 µM) and 6.25 µg/mL (≈ 21.1 µM), respectively. The “Percentage protection vs. Sal. Choleraesuis, PO” value in the assay with Salmonella Choleraesuis [2] came to 80%. Besides, the “Percentage protection vs. Sal. Choleraesuis, SC” value in the assay on Salmonella Choleraesuis [2] is listed as 60%.
`COC1(c2ccccc2)OCc2c1[n+]([O-])c1ccccc1[n+]2[O-]` (stereo not shown) [1-Methoxy-1-phenyl-1,3-dihydrofuro[3,4-b]quinoxaline 4,9-Dioxide]: the MIC in the assay on Streptococcus pyogenes is 25 µg/mL (≈ 80.6 µM); in the assay with Escherichia coli, 25 µg/mL (≈ 80.6 µM); in the assay with Salmonella Choleraesuis [1], 100 µg/mL (≈ 322 µM). Moreover, the “Percentage protection vs. Sal. Choleraesuis, PO” value in the assay with Salmonella Choleraesuis [2] came out at 30%. Besides, the “Percentage protection vs. Sal. Choleraesuis, SC” value in the assay with Salmonella Choleraesuis [2] is 30%.
For `CS(=O)(=O)Cc1c(C(=O)c2ccccc2)[n+]([O-])c2ccccc2[n+]1[O-]` [2-Benzoyl-3-methylsulfonylmethylquinoxaline 1,4-Dioxide], the MIC in the assay with Streptococcus pyogenes was found to be 12.5 µg/mL (≈ 34.9 µM); with Escherichia coli, 25 µg/mL (≈ 69.8 µM); in the assay on Salmonella Choleraesuis [1], 25 µg/mL (≈ 69.8 µM). Besides, the “Percentage protection vs. Sal. Choleraesuis, PO” value in the assay on Salmonella Choleraesuis [2] was 60%. Besides, the “Percentage protection vs. Sal. Choleraesuis, SC” value with Salmonella Choleraesuis [2] worked out at 30%.
As to `CC(=O)OCc1c(C(=O)c2ccccc2)[n+]([O-])c2ccccc2[n+]1[O-]` [2-Benzoyl-3-acetoxymethylquinoxaline 1,4-Dioxide], the MIC with Streptococcus pyogenes is 12.5 µg/mL (≈ 36.9 µM); in the assay with Escherichia coli, 12.5 µg/mL (≈ 36.9 µM); with Salmonella Choleraesuis [1], 50 µg/mL (≈ 148 µM). For the same compound, the “Percentage protection vs. Sal. Choleraesuis, PO” value in the assay with Salmonella Choleraesuis [2] came out at 50%. Moreover, in the assay with Salmonella Choleraesuis [2], the “Percentage protection vs. Sal. Choleraesuis, SC” value turned out to be 10%.
Take `CC(=O)SCc1c(C(=O)c2ccccc2)[n+]([O-])c2ccccc2[n+]1[O-]` [2-Benzoyl-3-acetylthiomethylquinoxaline 1,4-Dioxide]: the MIC in the assay on Streptococcus pyogenes, in the assay with Escherichia coli and in the assay with Salmonella Choleraesuis [1] was > 200 µg/mL in each case. Further, in the assay on Salmonella Choleraesuis [2], the “Percentage protection vs. Sal. Choleraesuis, PO” value came to 30%. Besides, the “Percentage protection vs. Sal. Choleraesuis, SC” value in the assay with Salmonella Choleraesuis [2] turned out to be 20%.
